Patent US20230203041A1, “ANTAGONISTS OF THE ADENOSINE A2A RECEPTOR” (AdoRx Therapeutics Limited, priority 2020, published 2023)
Counter-ions that a name gives are not always drawn.

Key:
[1] = target: T1, human Adenosine A2b receptor (Homo sapiens, UniProt P29275); test: Adenosine receptor TR-FRET binding assay (CA200645 displacement), A2b; settings: 30 nM CA200645, CHO cell membranes, 2 hours at room temperature
T1 construct: expressed in transfected cells; host or cells: CHO cell membranes
T1 sequence (P29275 1-332): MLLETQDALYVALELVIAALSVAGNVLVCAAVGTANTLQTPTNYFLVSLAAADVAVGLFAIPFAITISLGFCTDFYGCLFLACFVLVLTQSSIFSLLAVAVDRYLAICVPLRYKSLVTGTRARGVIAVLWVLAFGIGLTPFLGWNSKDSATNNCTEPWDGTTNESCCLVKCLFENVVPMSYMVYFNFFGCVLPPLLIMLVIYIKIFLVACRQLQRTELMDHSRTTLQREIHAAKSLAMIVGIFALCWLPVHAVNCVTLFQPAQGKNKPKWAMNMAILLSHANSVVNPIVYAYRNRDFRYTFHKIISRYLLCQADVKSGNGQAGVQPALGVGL

[2] = target: T2, human Adenosine A2a receptor (Homo sapiens, UniProt P29274); test: Adenosine receptor TR-FRET binding assay (CA200645 displacement), A2a; settings: 100 nM CA200645, CHO cell membranes, 2 hours at room temperature
T2 construct: expressed in transfected cells; host or cells: CHO cell membranes

[3] = target: T3, human Adenosine A3 receptor (Homo sapiens, UniProt P0DMS8); test: Adenosine receptor TR-FRET binding assay (CA200645 displacement), A3
T3 sequence (P0DMS8 1-318): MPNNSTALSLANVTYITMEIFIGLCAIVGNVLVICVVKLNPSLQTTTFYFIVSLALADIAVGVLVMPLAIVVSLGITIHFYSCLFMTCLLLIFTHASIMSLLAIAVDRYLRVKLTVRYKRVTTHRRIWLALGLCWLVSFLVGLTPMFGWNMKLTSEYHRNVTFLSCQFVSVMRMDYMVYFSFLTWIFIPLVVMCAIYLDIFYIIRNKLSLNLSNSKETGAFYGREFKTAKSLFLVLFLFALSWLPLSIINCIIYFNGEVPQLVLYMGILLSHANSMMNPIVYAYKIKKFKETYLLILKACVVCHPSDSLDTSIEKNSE

[4] = target: T4, human Adenosine A1 receptor (Homo sapiens, UniProt P30542); test: Adenosine receptor TR-FRET binding assay (CA200645 displacement), A1
T4 sequence (P30542 1-326): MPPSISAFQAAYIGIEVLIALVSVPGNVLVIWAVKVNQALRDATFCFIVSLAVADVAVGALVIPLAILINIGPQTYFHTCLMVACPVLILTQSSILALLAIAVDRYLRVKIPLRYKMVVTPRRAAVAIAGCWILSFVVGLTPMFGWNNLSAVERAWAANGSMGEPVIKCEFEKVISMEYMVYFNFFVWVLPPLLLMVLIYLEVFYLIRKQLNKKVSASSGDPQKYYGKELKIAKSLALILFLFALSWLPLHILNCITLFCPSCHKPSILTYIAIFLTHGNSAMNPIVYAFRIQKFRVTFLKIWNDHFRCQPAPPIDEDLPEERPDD

T2 sequence (P29274 whole entry): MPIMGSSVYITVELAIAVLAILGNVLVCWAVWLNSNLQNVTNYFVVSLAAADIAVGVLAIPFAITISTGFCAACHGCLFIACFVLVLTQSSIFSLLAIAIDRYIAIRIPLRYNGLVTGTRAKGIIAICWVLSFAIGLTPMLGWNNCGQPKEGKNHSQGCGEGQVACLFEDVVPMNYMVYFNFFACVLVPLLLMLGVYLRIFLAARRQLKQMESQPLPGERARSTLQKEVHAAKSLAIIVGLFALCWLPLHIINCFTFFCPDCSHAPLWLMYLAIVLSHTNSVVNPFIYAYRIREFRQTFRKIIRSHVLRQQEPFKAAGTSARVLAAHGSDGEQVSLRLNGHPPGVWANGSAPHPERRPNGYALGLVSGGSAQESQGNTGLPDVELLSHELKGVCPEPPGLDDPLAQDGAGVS

## c1coc(-c2cc3nc(NCc4nccs4)ccn3n2)c1 [Example 74, 2-(2-Furyl)-N-(thiazol-2-ylmethyl)pyrazolo[1,5-a]pyrimidin-5-amine]
[1]
  Ki: 6240 nM
[2]
  Ki: 587 nM
[3]
  Ki: 160 nM
[4]
  Ki: 649 nM

## OCc1c(-c2ccco2)nn2ccc(NCc3ccccc3)nc12 [Example 75, [5-(Benzylamino)-2-(2-furyl)pyrazolo[1,5-a]pyrimidin-3-yl]methanol]
[1]
  Ki: 1460 nM
[2]
  Ki: 153 nM
[3]
  Ki: 1740 nM
[4]
  Ki: 1140 nM

## Nc1ccn2nc(-c3ccco3)c(-c3ccncc3)c2n1 [Example 79, 2-(2-Furyl)-3-(4-pyridyl)pyrazolo[1,5-a]pyrimidin-5-amine]
[1]
  Ki: 34 nM
[2]
  Ki: 146 nM
[3]
  Ki: 2080 nM
[4]
  Ki: 14 nM

## N#Cc1c(-c2ccco2)nn2ccc(NC[C@H]3CCCN3)nc12 [Example 80, 2-(2-furyl)-5-[[(2R)-pyrrolidin-2-yl]methylamino]pyrazolo[1,5-a]pyrimidine-3-carbonitrile hydrochloride]
[1]
  Ki: 4460 nM
[2]
  Ki: 155 nM
[3]
  Ki: > 1000 nM
[4]
  Ki: 988 nM

## Cc1cc(-c2c(-c3ccc(F)cc3)nn3ccc(N)nc23)cc(Cl)n1 [Example 88, 3-(2-Chloro-6-methyl-4-pyridyl)-2-(4-fluorophenyl)pyrazolo[1,5-a]pyrimidin-5-amine]
[1]
  Ki: 63 nM
[2]
  Ki: 35.7 nM
[3]
  Ki: 536 nM
[4]
  Ki: 29 nM

## Cc1cc(-c2c(-c3cccc(C#N)c3)nn3ccc(C(=N)NC(C)(C)C)nc23)cc(Cl)n1 [Example 90, N-tert-Butyl-3-(2-chloro-6-methyl-4-pyridyl)-2-(3-cyanophenyl)pyrazolo [1,5-a]pyrimidine-5-carboxamidine]
[1]
  Ki: 80 nM
[2]
  Ki: 12.3 nM
[3]
  Ki: > 1000 nM
[4]
  Ki: 1840 nM

## Cc1cc(-c2c(-c3cccc(C#N)c3)nn3ccc(C(=O)NCC4CNC(=O)CO4)nc23)cc(C)n1 (stereo not shown) [Example 92.5]
[1]
  Ki: 17 nM
[2]
  Ki: 9.2 nM
[3]
  Ki: > 1000 nM
[4]
  Ki: 438 nM

## Cc1cc(-c2c(-c3cccc(C#N)c3)nn3ccc(C(=O)NC(C)C4(O)COC4)nc23)cc(C)n1 (stereo not shown) [Example 92.6]
[1]
  Ki: 22 nM
[2]
  Ki: 0.7 nM
[3]
  Ki: > 1000 nM
[4]
  Ki: 167 nM

## Cc1cc(-c2c(-c3cccc(C#N)c3)nn3ccc(C(=O)N4CCC5(CC4)NC(=O)NC5=O)nc23)cc(C)n1 [Example 92.7]
[1]
  Ki: 3 nM
[2]
  Ki: 27.6 nM
[3]
  Ki: > 1000 nM
[4]
  Ki: 158 nM

## Cc1cc(-c2c(-c3cccc(C#N)c3)nn3ccc(C(=O)N[C@H]4COC[C@H]4O)nc23)cc(C)n1 [Example 92.8]
[1]
  Ki: 14 nM
[2]
  Ki: 0.6 nM
[3]
  Ki: > 1000 nM
[4]
  Ki: 70 nM

## Cc1cc(-c2c(-c3cccc(C#N)c3)nn3ccc(C(=O)NC[C@H]4CCC(=O)N4)nc23)cc(C)n1 [Example 92.9]
[1]
  Ki: 26 nM
[2]
  Ki: 1 nM
[3]
  Ki: > 1000 nM
[4]
  Ki: 150 nM

## Cc1cc(-c2c(-c3cccc(C#N)c3)nn3ccc(C(=O)NCC4CCCNC4=O)nc23)cc(C)n1 (stereo not shown) [Example 92.15]
[1]
  Ki: 19 nM
[2]
  Ki: 0.3 nM
[3]
  Ki: 599 nM
[4]
  Ki: 150 nM

## Cc1cc(-c2c(-c3cccc(C#N)c3)nn3ccc(C(=O)NCC4(C)CCC(=O)N4)nc23)cc(C)n1 (stereo not shown) [Example 92.16]
[1]
  Ki: 59 nM
[2]
  Ki: 0.7 nM
[3]
  Ki: > 1000 nM
[4]
  Ki: 232 nM

## Cc1cc(-c2c(-c3cccc(C#N)c3)nn3ccc(C(=O)NCC4(C)NC(=O)NC4=O)nc23)cc(C)n1 (stereo not shown) [Example 92.17]
[1]
  Ki: 28 nM
[2]
  Ki: 1.1 nM
[3]
  Ki: > 1000 nM
[4]
  Ki: 246 nM

## Cc1cc(-c2c(-c3cccc(C#N)c3)nn3ccc(C(=O)NCC4(C)CCC(=O)NC4)nc23)cc(C)n1 (stereo not shown) [Example 92.18]
[1]
  Ki: 51 nM
[2]
  Ki: 0.7 nM
[3]
  Ki: > 1000 nM
[4]
  Ki: 28 nM

## Cc1cc(-c2c(-c3cccc(C#N)c3)nn3ccc(C(=O)NCC4CCC(=O)NC4)nc23)cc(C)n1 (stereo not shown) [Example 92.19]
[1]
  Ki: 115 nM
[2]
  Ki: 19.2 nM
[3]
  Ki: > 1000 nM
[4]
  Ki: 179 nM

## Cc1cc(-c2c(-c3cccc(C#N)c3)nn3ccc(C(=O)N[C@H]4C[C@](C)(O)C4)nc23)cc(C)n1 [Example 92.20]
[1]
  Ki: 37 nM
[2]
  Ki: 1.2 nM
[3]
  Ki: > 1000 nM
[4]
  Ki: 301 nM

## Cc1cc(-c2c(-c3cccc(C#N)c3)nn3ccc(C(=O)N[C@H]4CC[C@@](C)(O)CC4)nc23)cc(C)n1 [Example 92.23]
[1]
  Ki: 35 nM
[2]
  Ki: 3.4 nM
[3]
  Ki: > 1000 nM
[4]
  Ki: 1120 nM

## Cc1cc(-c2c(-c3cccc(C#N)c3)nn3ccc(C(=O)NC4CNC(=O)C4)nc23)cc(C)n1 (stereo not shown) [Example 92.25]
[1]
  Ki: 69 nM
[2]
  Ki: 5.4 nM
[3]
  Ki: > 1000 nM
[4]
  Ki: 634 nM

## Cc1cc(-c2c(-c3cccc(C#N)c3)nn3ccc(C(=O)NCC4CNC(=O)C4)nc23)cc(C)n1 (stereo not shown) [Example 92.26]
[1]
  Ki: 22 nM
[2]
  Ki: 5.8 nM
[3]
  Ki: > 1000 nM
[4]
  Ki: 175 nM

## Cc1cc(-c2c(-c3cccc(C#N)c3)nn3ccc(C(=O)NC[C@H]4CNC(=O)C4)nc23)cc(C)n1 [Example 92.27]
[1]
  Ki: 16 nM
[2]
  Ki: 6.6 nM
[3]
  Ki: > 1000 nM
[4]
  Ki: 210 nM

## Cc1cc(-c2c(-c3cccc(C#N)c3)nn3ccc(C(=O)NC[C@@H]4CNC(=O)C4)nc23)cc(C)n1 [Example 92.28]
[1]
  Ki: 64 nM
[2]
  Ki: 3.2 nM
[3]
  Ki: > 1000 nM
[4]
  Ki: 345 nM

## Cc1cc(-c2c(-c3cccc(C#N)c3)nn3ccc(C(=O)N[C@H]4COC[C@@H]4O)nc23)cc(C)n1 [Example 92.29]
[1]
  Ki: 34 nM
[2]
  Ki: 1.9 nM
[3]
  Ki: > 1000 nM
[4]
  Ki: 412 nM

## Cc1cc(-c2c(-c3cccc(C#N)c3)nn3ccc(C(=O)N[C@@H]4COC[C@@H]4O)nc23)cc(C)n1 [Example 92.30]
[1]
  Ki: 36 nM
[2]
  Ki: 0.8 nM
[3]
  Ki: > 1000 nM
[4]
  Ki: 361 nM

## Cc1cc(-c2c(-c3cccc(C#N)c3)nn3ccc(C(=O)N[C@@H]4COC[C@H]4O)nc23)cc(C)n1 [Example 92.31]
[1]
  Ki: 57 nM
[2]
  Ki: 2.1 nM
[3]
  Ki: > 1000 nM
[4]
  Ki: 333 nM

## Cc1cc(-c2c(-c3cccc(C#N)c3)nn3ccc(C(=O)N[C@@H]4CN(C)C[C@H]4O)nc23)cc(C)n1 [Example 92.32]
[1]
  Ki: 24 nM
[2]
  Ki: 2.9 nM
[3]
  Ki: > 1000 nM
[4]
  Ki: 459 nM

## Cc1cc(-c2c(-c3cccc(C#N)c3)nn3ccc(C(=O)NC[C@@H]4CCC(=O)N4)nc23)cc(C)n1 [Example 92.33]
[1]
  Ki: 57 nM
[2]
  Ki: 13 nM
[3]
  Ki: > 1000 nM
[4]
  Ki: 652 nM

## Cc1cc(-c2c(-c3cccc(C#N)c3)nn3ccc(NC(=O)[C@](C)(O)C(F)(F)F)nc23)cc(C)n1 [Example 94.3, (2S)—N-[2-(3-Cyanophenyl)-3-(2,6-dimethyl-4-pyridyl)pyrazolo[1,5-a]pyrimidin-5-yl]-3,3,3-trifluoro-2-hydroxy-2-methyl-propanamide]
[1]
  Ki: 15 nM
[2]
  Ki: 2 nM
[3]
  Ki: > 1000 nM
[4]
  Ki: 184 nM

## Cc1cc(-c2c(-c3cccc(C#N)c3)nn3ccc(NC(=O)C(C)(C)C)nc23)cc(Cl)n1 [Example 95, N-[3-(2-Chloro-6-methyl-4-pyridyl)-2-(3-cyanophenyl)pyrazolo[1,5-a]pyrimidin-5-yl]-2,2-dimethyl-propanamide]
[1]
  Ki: 31 nM
[2]
  Ki: 2.7 nM
[3]
  Ki: > 1000 nM
[4]
  Ki: 146 nM

## C=C(C)[C@H](C)NC(=O)c1ccn2nc(-c3cccc(C#N)c3)c(-c3cc(C)nc(C)c3)c2n1 [Example 99, 2-(3-Cyanophenyl)-N-[(1S)-1,2-dimethylallyl]-3-(2,6-dimethyl-4-pyridyl)pyrazolo[1,5-a]pyrimidine-5-carboxamide]
[1]
  Ki: 35 nM
[2]
  Ki: 0.4 nM
[3]
  Ki: > 1000 nM
[4]
  Ki: 99 nM

## Cc1cc(-c2c(-c3cccc(C#N)c3)nn3ccc(C(=O)N[C@@H](C)C(C)(C)O)nc23)cc(CO)n1 [Example 100, 2-(3-Cyanophenyl)-N-[(1S)-2-hydroxy-1,2-dimethyl-propyl]-3-[2-(hydroxymethyl)-6-methyl-4-pyridyl]pyrazolo[1,5-a]pyrimidine-5-carboxamide]
[1]
  Ki: 28 nM
[2]
  Ki: 0.4 nM
[3]
  Ki: > 1000 nM
[4]
  Ki: 64 nM
